According to the supplement of paper PMC10307832:

Columns and labels:
Assay in all cases: relative viability (nuclei count vs DMSO), 5 days (fraction); higher = more cells survive
[1] = compound: c1ccc2c(CCNc3ccc(Nc4ccncc4)cc3)c[nH]c2c1 [Serdemetan] + CC(=O)Nc1cccc(-n2c(=O)n(C3CC3)c(=O)c3c(Nc4ccc(I)cc4F)n(C)c(=O)c(C)c32)c1 [Trametinib] (partner 0.02 µM)
Procedure, shortened: (§1)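 Relative viability divides the nuclei count in treated wells by that in vehicle wells. Lung cancer cell lines were seeded in 1536-well plates, dosed by pin tool the next day, and fixed and stained after 5 days in one step with final 0.05% Triton X-100, 1% formaldehyde and 1 ug/ml Hoechst. Dosing was a single drug or a fixed anchor-drug dose plus five library-drug doses (not always all listed) in √10 steps, and values are medians of duplicate plates imaged at 4×.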

[2] = compound: C1CC(C2=C(C1)C3=C(N2)C=CC(=C3)Cl)C(=O)N [Selisistat] + Nc1nc2[nH]cc(CCc3ccc(C(=O)N[C@@H](CCC(=O)O)C(=O)O)cc3)c2c(=O)[nH]1 [Pemetrexed] (partner 0.2 µM)
Procedure, shortened: as §1

[3] = compound: c1ccc2c(CCNc3ccc(Nc4ccncc4)cc3)c[nH]c2c1 [Serdemetan] + Nc1nc2[nH]cc(CCc3ccc(C(=O)N[C@@H](CCC(=O)O)C(=O)O)cc3)c2c(=O)[nH]1 [Pemetrexed] (partner 0.2 µM)
Procedure, shortened: as §1

[4] = compound: c1ccc2c(CCNc3ccc(Nc4ccncc4)cc3)c[nH]c2c1 [Serdemetan] + COc1cc2c(Oc3ccc(NC(=O)C4(C(=O)Nc5ccc(F)cc5)CC4)cc3F)ccnc2cc1OCCCN1CCOCC1 [Foretinib] (partner 0.25 µM)
Procedure, shortened: as §1

Cell Line	relative viability ([1]; first compound 0.04 µM)	relative viability ([1]; first compound 0.1265 µM)	relative viability ([1]; first compound 0.4 µM)	relative viability ([1]; first compound 1.265 µM)	relative viability ([1]; first compound 4 µM)	relative viability ([2]; first compound 0.4 µM)	relative viability ([2]; first compound 1.265 µM)	relative viability ([2]; first compound 4 µM)	relative viability ([2]; first compound 12.65 µM)	relative viability ([2]; first compound 40 µM)	relative viability ([3]; first compound 0.04 µM)	relative viability ([3]; first compound 0.1265 µM)	relative viability ([3]; first compound 0.4 µM)	relative viability ([3]; first compound 1.265 µM)	relative viability ([3]; first compound 4 µM)	relative viability ([4]; first compound 0.04 µM)	relative viability ([4]; first compound 0.1265 µM)	relative viability ([4]; first compound 0.4 µM)	relative viability ([4]; first compound 1.265 µM)	relative viability ([4]; first compound 4 µM)
NCI-H522	0.678	0.698	0.87	0.702	0.612	1.03	0.646	0.781	0.94	1.1	0.971	0.857	1.04	0.933	0.98	–	–	–	–	–
HCC-15	0.402	0.397	0.361	0.334	0.317	0.241	0.222	–	0.23	0.213	0.216	0.195	0.215	0.226	0.213	1	0.993	0.944	0.854	0.707
A-427	0.699	0.732	0.877	0.698	0.506	0.996	1.04	–	1.07	0.988	0.958	0.927	1.04	0.698	0.854	1.01	0.933	1.1	0.778	0.469
NCI-H2228	0.564	0.523	0.327	0.115	0.172	0.32	0.308	0.344	0.325	0.408	0.349	0.364	0.325	0.312	0.253	0.755	0.518	0.784	0.303	0.258
NCI-H1734	0.555	0.358	0.246	0.147	0.161	0.357	0.388	0.401	0.434	0.391	0.44	0.396	0.405	0.171	0.14	0.692	0.335	0.223	0.126	0.204
PC-14	0.798	0.747	–	0.647	0.601	0.116	0.152	0.123	0.139	0.137	0.133	0.139	–	0.137	0.143	0.862	0.939	0.376	0.83	1.1
NCI-H1915	0.3	0.309	0.286	0.257	0.242	0.494	0.559	0.495	0.462	0.489	0.52	0.517	0.493	0.491	0.489	1.14	1.09	1.07	1.03	0.837
NCI-H1666	0.887	0.854	0.836	–	0.672	0.948	0.803	0.871	0.822	0.853	0.795	0.87	0.786	–	0.675	0.967	0.909	0.937	0.591	0.742
HCC-366	0.279	0.114	0.0617	0.0278	0.0741	0.136	0.184	0.193	0.146	0.164	0.177	0.135	0.15	0.0885	0.055	0.948	0.812	0.197	0.073	0.0559
SK-MES-1	0.48	0.538	0.531	0.532	0.563	1.01	0.957	0.917	0.828	1.01	0.938	0.89	0.824	0.772	0.841	0.877	0.915	0.842	0.847	0.534
SW 1573	0.595	0.6	0.465	0.412	0.256	0.798	0.774	–	0.815	0.776	0.869	0.851	0.887	0.689	0.376	0.898	0.815	0.877	0.668	0.422
NCI-H661	0.551	0.603	0.621	0.512	0.517	0.915	0.898	0.854	0.929	0.861	0.968	0.902	0.877	0.786	0.806	1	1.01	1.02	0.924	0.796
PC-3 [JPC-3]	0.708	0.634	0.663	0.67	0.684	1.14	1.15	–	0.951	1.02	1.12	1.07	0.991	0.829	1.05	0.98	1	0.946	1.09	1.06
NCI-H1623	–	–	–	–	–	–	–	–	–	–	–	–	–	–	–	0.901	0.917	0.698	0.756	0.703
Calu-6	–	–	–	–	–	–	–	–	–	–	–	–	–	–	–	0.866	0.819	0.839	0.567	0.472
LC-2-ad	0.86	0.909	0.884	0.86	0.705	0.263	0.268	0.268	0.285	0.261	0.255	0.231	0.269	0.255	0.267	0.883	0.943	0.831	0.748	0.86
CAL-12T	0.447	0.335	0.334	0.365	0.308	1.29	1.25	1.3	1.12	1.23	1.17	1.19	0.951	1.19	1.05	1.07	1.15	1.04	1.03	0.969
RERF-LC-KJ	0.896	0.874	0.898	0.793	0.778	0.482	0.466	0.467	0.466	0.468	0.455	0.456	0.452	0.475	0.49	0.836	0.884	0.786	0.79	0.887
